Where two headings read alike, the source gives them in different places. Ends that are not written are not given here.
How the values were obtained:
[1] = biological target: T1, dihydrofolate reductase (DHFR) (Escherichia coli, UniProt P0ABQ4); assay type: binding, E. coli; details: for elution time: 20 nM compounds, 100 nM fluorescein, 2 mM ammonium acetate; for elution / retention time: column with 50 pmol DHFR initial loading (FIG. 19 Panel B), compounds infused at 20 nM, fluorescein 100 nM
T1 construct: made in house

[2] = biological target: T2, Src kinase, human recombinant (Homo sapiens, UniProt P12931); assay: Src PTK inhibition, free and entrapped in GLTES/DGS silica, TR-FRET detection of peptide phosphorylation; assay type: biochemical; details: substrate P1716, ATP as in FIG. 29
T2 construct: purchased Sigma-Aldrich (Oakville, ON) S5439; host or cells: insect cells

[3] = FIG. 22 Panel A, column cut from one continuously filled capillary
[4] = FIG. 22 Panel B, second column from the same capillary
[5] = Src entrapped in GLTES/DGS derived silica, read-out: IC50 Entrapped in Silica
[6] = free Src in solution, read-out: IC50 Solution

Row | IC50 [2, 5] [µM] | IC50 [2, 6] [µM] | Compound | elution time [1, 3] [min] | elution time [1, 4] [min] | elution / retention time [1] [min]
1 |  |  | O=c1ccc2ccccc2o1 [coumarin] | 2.7 | 2.6 | 2
2 | 0.6 to 0.8 | 0.5 to 0.7 | COc1cc2ncnc(Nc3ccc(Oc4ccccc4)cc3)c2cc1OC [Src Kinase Inhibitor I, 4-(4-phenoxyanilino)-6,7-dimethoxyquinazoline] |  |  | 
3 | 1000 to 1400 | 800 to 1200 | YIYGSFK [YIYGSFK] |  |  | 
4 |  |  | Nc1nc2ncc(CNc3ccc(C(=O)N[C@@H](CCC(=O)O)C(=O)O)cc3)nc2c(=O)[nH]1 [folic acid] | 8.9 | 8.4 | 7

Source: US7375168B2, “Protein compatible methods and compounds for controlling the morphology and shrinkage of silica derived from polyol-modified silanes” (McMaster University, priority 2002, dated 2008)
